Assay results published in ChEMBL document CHEMBL1132126, “Synthesis of spermidine and norspermidine dimers as high affinity polyamine transport inhibitors” (Bioorg Med Chem Lett, 1999).

Tests used:
Type in all cases: functional, cell-based
T47D [1] = experiment: Inhibition of [3H]spermidine transport by the compound was evaluated in T-47D human breast cancer cells
ZR-75-1 = experiment: Inhibition of [3H]spermine transport by the compound was evaluated in ZR-75-1 human breast cancer cells
T47D [2] = experiment: Inhibition of [3H]putrescine transport by the compound was evaluated in T-47D human breast cancer cells
T47D [3] = experiment: Inhibition of [3H]spermine transport by the compound was evaluated in T-47D human breast cancer cells

Row | Structure (SMILES) | Ki (T47D [1]) | Ki (ZR-75-1) | Ki (T47D [2]) | Ki (T47D [3])
1 | NCCCCNCCCN [SPERMIDINE] | 4.4 µM | – | – | –
2 | NCCCN(CCCN)C(=O)CCC(=O)N(CCCN)CCCN | – | 1.7 µM | – | –
3 | NCCCNCCCC(NCCCN)C(=O)NCCSSCCNC(=O)C(CCCNCCCN)NCCCN (stereo not drawn) | 12.6 µM | 4 µM | 3.1 µM | 15.9 µM
4 | NCCCN(CCCN)Cc1ccc(CN(CCCN)CCCN)cc1 | 1.5 µM | 0.7 µM | 0.16 µM | 1.5 µM
5 | NCCCN(C/C=C/CN(CCCN)CCCN)CCCN | 2 µM | – | 0.27 µM | 1.6 µM
6 | NCCCNCCCCNCCCN [SPERMINE] | 0.92 µM | 0.2 µM | 0.65 µM | 2.7 µM
7 | NCCCN(CC#CCN(CCCN)CCCN)CCCN | 25.6 µM | – | 2.6 µM | 12.8 µM
8 | NCCCCN(CC#CCN(CCCN)CCCCN)CCCN | 16.9 µM | – | 1.9 µM | 27.7 µM
9 | NCCCCN(CCCN)Cc1ccc(CN(CCCN)CCCCN)cc1 | 2 µM | 0.24 µM | 0.28 µM | 2.9 µM
10 | NCCCN(CCCN)CCCCN(CCCN)CCCN | 2.4 µM | 0.56 µM | 0.52 µM | 6.2 µM
11 | NCCCCN(CCCN)CCCCN(CCCN)CCCCN | 4.9 µM | – | 0.72 µM | 4.3 µM
12 | NCCCCN [PUTRESCINE] | – | – | 7.4 µM | –
13 | NCCCCN(C/C=C/CN(CCCN)CCCCN)CCCN | 1.8 µM | – | 0.1 µM | 1.5 µM
